# pIC50: −log10 of the molar value. Several values for one entry are separate records, joined by “and”; a condition that tells them apart may be missing. Equal entries are not always repeated. Where two headings read alike, the source gives them in different places.
# Experiments:
# FLT3 [1] = molecular target: T1, FLT3 (Homo sapiens, UniProt P36888); assay: Eurofins/DiscoverX KdELECT, FLT3 kinase IC50; type: binding; conditions: 11-point 3-fold dilution, top concentration 10,000 nM
# T1 construct: purchased Eurofins/DiscoverX
# T1 sequence (P36888 27-993): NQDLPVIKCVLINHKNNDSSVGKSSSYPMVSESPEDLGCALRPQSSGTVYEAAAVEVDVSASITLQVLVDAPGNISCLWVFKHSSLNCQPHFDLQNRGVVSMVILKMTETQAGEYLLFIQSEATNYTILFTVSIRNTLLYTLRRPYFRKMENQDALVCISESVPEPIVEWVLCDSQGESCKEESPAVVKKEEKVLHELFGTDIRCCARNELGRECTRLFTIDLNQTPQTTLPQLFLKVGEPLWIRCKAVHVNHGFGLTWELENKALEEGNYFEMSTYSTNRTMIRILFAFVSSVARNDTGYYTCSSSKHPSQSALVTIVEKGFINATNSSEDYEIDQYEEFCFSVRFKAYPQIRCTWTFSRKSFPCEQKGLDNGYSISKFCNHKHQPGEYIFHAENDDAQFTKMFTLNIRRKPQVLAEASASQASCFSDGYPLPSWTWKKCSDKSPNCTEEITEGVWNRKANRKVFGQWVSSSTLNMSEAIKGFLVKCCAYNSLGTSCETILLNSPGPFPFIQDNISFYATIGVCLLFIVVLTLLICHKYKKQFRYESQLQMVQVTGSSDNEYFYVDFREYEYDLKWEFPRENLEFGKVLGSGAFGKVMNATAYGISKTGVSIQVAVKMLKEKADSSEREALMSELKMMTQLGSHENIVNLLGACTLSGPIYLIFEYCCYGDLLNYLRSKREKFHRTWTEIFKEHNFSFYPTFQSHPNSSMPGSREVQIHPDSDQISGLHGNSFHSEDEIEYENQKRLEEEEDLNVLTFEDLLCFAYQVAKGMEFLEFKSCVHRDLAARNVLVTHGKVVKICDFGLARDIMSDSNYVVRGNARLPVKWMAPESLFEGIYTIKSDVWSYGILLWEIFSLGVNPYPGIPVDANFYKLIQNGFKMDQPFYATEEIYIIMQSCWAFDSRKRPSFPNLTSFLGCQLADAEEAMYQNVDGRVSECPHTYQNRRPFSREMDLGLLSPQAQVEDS
# Method: (§1) The 3i-compounds underwent activity testing against a panel of 32 bromodomains using the Eurofins/DiscoverX bromoMAX assay, with specific focus on TAF1(2) bromodomain assessed by the KdELECT assay. In a similar manner, kinase activity was evaluated using a panel of 97 kinase proteins using the Eurofins/DiscoverX scanELECT and KdELECT assays, with specific focus on FLT3 protein. An 11-point 3-fold serial dilution of each test compound was prepared in 100% DMSO at 100x final test concentration and subsequently diluted to final concentration (DMSO 1%). […] Percent control was calculated using the following formula: ((test compound signal – positive control signal)/ (negative control signal – positive control signal)) × 100.
# TAF1(2) bromodomain = molecular target: T2, TAF1(2) bromodomain (Homo sapiens, UniProt P21675); assay: Eurofins/DiscoverX KdELECT, TAF1(2) bromodomain IC50; type: binding; conditions: 11-point 3-fold dilution, top concentration 10,000 nM
# T2 construct: with specific focus on TAF1(2) bromodomain assessed by the KdELECT assay; purchased Eurofins/DiscoverX
# T2 sequence (P21675 1519-1628 limits assumed): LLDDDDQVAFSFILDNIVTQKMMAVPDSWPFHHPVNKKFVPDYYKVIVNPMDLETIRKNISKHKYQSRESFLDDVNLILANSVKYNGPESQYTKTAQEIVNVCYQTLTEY
# Method: as §1
# TAF1(2) = molecular target: T3, TAF1(2) (Homo sapiens, UniProt P21675); assay: Eurofins/DiscoverX cell free bromodomain assay, percent control; type: binding; conditions: for per_control_1000nM TAF1(2): 1000 nM compound; for per_control_10000nM TAF1(2): 10000 nM compound
# T3 construct: with specific focus on TAF1(2) bromodomain assessed by the KdELECT assay; purchased Eurofins/DiscoverX
# T3 sequence (P21675 1519-1628 limits assumed): T2 sequence (P21675 1519-1628 limits assumed)
# Method: as §1
# FLT3 [2] = molecular target: T1, FLT3; assay: Eurofins/DiscoverX cell free kinase assay, percent control; type: binding; conditions: for per_control_1000nM FLT3: 1000 nM compound; for per_control_10000nM FLT3: 10000 nM compound
# Method: as §1
# (§2) Fig 2 Results of 3i-compound series at concentrations of 1 µM and 10 µM in a cell free Eurofins/DiscoverX assay for kinase and bromodomain proteins. (A) Single-targeted compounds with tyrosine kinase activity but without bromodomain activity. (B) Dual-targeted compounds with both tyrosine kinase and bromodomain activity.
# FLT3(ITD,F691L) = assay: as above; type: binding; conditions: for per_control_1000nM FLT3(ITD,F691L): 1000 nM compound; for per_control_10000nM FLT3(ITD,F691L): 10000 nM compound
# Method: as §1, §2
# MOLM13 cells = assay: Cell viability, CellTiter Glo, MOLM13; type: cell-based; conditions: for pIC50: 72h
# Method: (§3) Drug sensitivity and resistance testing in MOLM13, DU4475, HDQP1, and IGROV1 cells was conducted at the Finnish Institute for Molecular Medicine (FIMM), University of Helsinki. In brief, the effects of compounds on cell viability and cell death were quantified with Cell-Titer Glo (Promega) and CellTox Green (Promega), respectively. Compounds or vehicle control were included in cell culture medium at described concentrations for 72h using an automated liquid dispenser in 384-well format. For KASUMI-1 experiments, cells were grown in 96-well plates and similarly incubated with compounds at indicated concentrations for 72h in RPMI + 10% FCS + Gentamicin, followed by lysis and quantification of cell viability with Cell-Titer Glo (Promega).
# (§4) Raw values from viability and toxicity assays were normalized to DMSO and plotted to heat maps in R using pheatmap (RRID:SCR_016418). Dose-response curves were generated using the drc package in R [40]. In brief, nonlinear modelling was performed to calculate IC50 values for each compound where possible and resulting curves from drc and experimental values were plotted using ggplot2 (RRID:SCR_014601).
# IGROV1 cells = assay: Cell viability, CellTiter Glo, IGROV1; type: cell-based
# Method: as §3, §4
# DU4475 cells = assay: Cell toxicity, CellTox Green, DU4475; type: cell-based; conditions: CellTox Green relative to DMSO
# Method: as §3, §4
# c-KIT = molecular target: T4, c-KIT (Homo sapiens, UniProt P10721); assay: Eurofins/DiscoverX kinase assay, c-KIT IC50; type: binding
# T4 construct: purchased Eurofins/DiscoverX
# Method: as §1
# PDGFRB = molecular target: T5, PDGFRB (Homo sapiens, UniProt P09619); assay: Eurofins/DiscoverX kinase assay, PDGFRB IC50; type: binding
# T5 construct: purchased Eurofins/DiscoverX
# Method: as §1
# KASUMI-1 cells = assay: Cell viability, CellTiter Glo, KASUMI-1; type: cell-based; conditions: compared to dual FLT3/TAF1(2) compounds 3i-1103, 3i-1246, 3i-1248
# Method: as §3, §4
# [3] = kdELECT, read-out: TAF1(2) IC50
# [4] = one independent experiment per value, read-out: MOLM13 IC50, individual dose-response curve (CellTiter Glo)
# [5] = Homo sapiens, MOLM-13, 72 h, mean of n = 3 independent experiments, read-out: MOLM13 IC50 (CellTiter Glo)
# [6] = 72h, one independent experiment per value, read-out: IGROV1 IC50, individual dose-response curve (CellTiter Glo)
# [7] = Homo sapiens, IGROV-1, 72 h, one independent experiment per value, read-out: IGROV1 IC50, individual dose-response curve (CellTiter Glo)
# [8] = Homo sapiens, IGROV-1, 72 h, mean of n = 3 independent experiments, read-out: IGROV1 IC50 (CellTiter Glo)
# T4 sequence (P10721 26-976): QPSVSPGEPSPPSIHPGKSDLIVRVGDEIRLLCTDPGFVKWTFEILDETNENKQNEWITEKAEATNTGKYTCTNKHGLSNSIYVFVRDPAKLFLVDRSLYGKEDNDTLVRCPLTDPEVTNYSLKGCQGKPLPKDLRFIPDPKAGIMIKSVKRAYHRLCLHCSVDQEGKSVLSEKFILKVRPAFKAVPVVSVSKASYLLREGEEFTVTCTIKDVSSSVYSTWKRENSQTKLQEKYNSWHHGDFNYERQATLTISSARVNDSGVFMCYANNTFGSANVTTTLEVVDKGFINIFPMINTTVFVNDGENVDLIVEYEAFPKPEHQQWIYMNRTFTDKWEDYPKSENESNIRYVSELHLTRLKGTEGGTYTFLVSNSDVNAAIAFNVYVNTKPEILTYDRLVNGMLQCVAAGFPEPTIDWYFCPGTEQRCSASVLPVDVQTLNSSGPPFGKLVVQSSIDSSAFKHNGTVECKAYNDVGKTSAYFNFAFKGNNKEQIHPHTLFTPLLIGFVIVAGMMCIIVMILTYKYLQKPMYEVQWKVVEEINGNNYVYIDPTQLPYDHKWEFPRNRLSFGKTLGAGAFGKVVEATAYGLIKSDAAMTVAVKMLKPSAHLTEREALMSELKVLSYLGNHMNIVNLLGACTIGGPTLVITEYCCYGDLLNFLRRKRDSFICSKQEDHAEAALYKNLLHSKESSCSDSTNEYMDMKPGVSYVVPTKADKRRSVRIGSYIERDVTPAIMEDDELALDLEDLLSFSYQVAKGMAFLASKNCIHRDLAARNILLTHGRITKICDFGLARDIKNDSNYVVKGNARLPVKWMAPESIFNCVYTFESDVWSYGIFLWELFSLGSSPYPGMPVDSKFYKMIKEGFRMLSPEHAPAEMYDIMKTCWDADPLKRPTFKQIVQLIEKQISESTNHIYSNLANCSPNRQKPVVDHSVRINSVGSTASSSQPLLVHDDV
# T5 sequence (P09619 33-1106): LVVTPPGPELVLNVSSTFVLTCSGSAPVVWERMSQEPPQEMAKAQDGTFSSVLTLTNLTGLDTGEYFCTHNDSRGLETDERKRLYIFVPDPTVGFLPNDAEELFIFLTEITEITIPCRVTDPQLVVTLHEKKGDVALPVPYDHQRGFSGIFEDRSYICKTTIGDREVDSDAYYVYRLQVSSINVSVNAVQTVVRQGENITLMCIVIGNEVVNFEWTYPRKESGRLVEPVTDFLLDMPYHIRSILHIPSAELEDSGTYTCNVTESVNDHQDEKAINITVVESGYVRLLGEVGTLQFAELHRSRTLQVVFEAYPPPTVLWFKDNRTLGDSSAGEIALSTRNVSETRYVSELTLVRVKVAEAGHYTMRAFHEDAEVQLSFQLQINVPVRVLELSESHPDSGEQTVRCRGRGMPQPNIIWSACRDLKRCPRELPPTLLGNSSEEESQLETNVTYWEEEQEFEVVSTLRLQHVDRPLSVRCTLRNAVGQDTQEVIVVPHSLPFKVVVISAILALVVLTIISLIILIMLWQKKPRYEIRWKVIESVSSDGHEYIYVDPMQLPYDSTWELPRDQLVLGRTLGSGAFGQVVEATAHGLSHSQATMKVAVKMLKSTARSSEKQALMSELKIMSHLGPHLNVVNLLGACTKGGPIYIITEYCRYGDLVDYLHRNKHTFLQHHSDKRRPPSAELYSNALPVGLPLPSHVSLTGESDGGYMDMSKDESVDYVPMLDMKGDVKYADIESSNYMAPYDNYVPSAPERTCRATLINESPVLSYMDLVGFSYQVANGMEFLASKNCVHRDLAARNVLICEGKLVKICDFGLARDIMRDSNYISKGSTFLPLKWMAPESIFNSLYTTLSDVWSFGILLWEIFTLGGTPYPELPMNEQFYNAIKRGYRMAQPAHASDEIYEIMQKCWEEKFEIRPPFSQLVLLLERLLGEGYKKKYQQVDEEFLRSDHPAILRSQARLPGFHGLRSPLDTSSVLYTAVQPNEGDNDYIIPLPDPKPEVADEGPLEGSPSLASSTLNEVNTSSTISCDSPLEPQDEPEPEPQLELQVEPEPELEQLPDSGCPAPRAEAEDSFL
SMILES,pIC50 (FLT3 [1]),pIC50 (TAF1(2) bromodomain; [3]),per_control_1000nM TAF1(2) (TAF1(2)) [percent control],per_control_10000nM TAF1(2) (TAF1(2)) [percent control],per_control_1000nM FLT3 (FLT3 [2]) [percent control],per_control_10000nM FLT3 (FLT3 [2]) [percent control],"per_control_1000nM FLT3(ITD,F691L) (FLT3(ITD,F691L)) [percent control]","per_control_10000nM FLT3(ITD,F691L) (FLT3(ITD,F691L)) [percent control]",pIC50 (MOLM13 cells; [4]),pIC50 (MOLM13 cells; [5]),pIC50 (IGROV1 cells; [6]),pIC50 (IGROV1 cells; [7]),pIC50 (IGROV1 cells; [8]),other results
COc1ccc(-c2cc(NC(=O)c3ccc(C(C)(C)C)cc3)[nH]n2)cc1 [Compound 3i-1103],> 6.00,6.32,21,2.6,0,0,38,9.4,7.03 and 7.09 and 6.72,6.92,< 4.52,4.75,,"CTX normalized_to_DMSO (DU4475 cells; DU4475, exp 1, 0.3 µM): 1.007; CTX normalized_to_DMSO (DU4475 cells; DU4475, exp 1, 1 µM): 0.9954; CTX normalized_to_DMSO (DU4475 cells; DU4475, exp 1, 3 µM): 0.9628; CTX normalized_to_DMSO (DU4475 cells; DU4475, exp 1, 10 µM): 0.9392; CTX normalized_to_DMSO (DU4475 cells; DU4475, exp 1, 30 µM): 0.7319"
"Cn1cc(-c2cc(NC(=O)c3ccc(C(C)(C)C)cc3)n[nH]2)ccc1=O [Compound 3i-1248, 4-(tert-butyl)-N-(5-(1-methyl-6-oxo-1,6-dihydropyridin-3-yl)-1H-pyrazol-3-yl)benzamide]",> 6.00,8.29,0.3,0.05,6.7,0.15,29,1.9,6.27 and 5.80 and 6.15,6.03,4.98 and 5.11,4.93,5.00,
"Cc1cc(-c2cc(NC(=O)c3ccc(C(C)(C)C)cc3)[nH]n2)ccn1 [Compound 3i-1246, 4-(tert-butyl)-N-(3-(2-methylpyridin-4-yl)-1H-pyrazol-5-yl)benzamide]",7.74,6.55 and 6.59,4.1,3.6,0,0.2,3.3,1.6,6.74 and 6.37 and 6.57,6.53,4.94 and 5.06,4.92,4.96,
"CC(C)(C)c1ccc(C(=O)Nc2cc(-c3ccccc3)n[nH]2)cc1 [Compound 3i-1247, 4-(tert-butyl)-N-(3-phenyl-1H-pyrazol-5-yl)benzamide]",8.82,,97,78,12,0,9.7,0.1,7.41 and 6.86 and 7.37,,5.46 and 5.42 and 5.60,,,"pIC50 (TAF1(2) bromodomain; TAF1(2) IC50, kdELECT): < 5.00; pIC50 (c-KIT): 8.07; pIC50 (PDGFRB): 8.47; pIC50 (MOLM13 cells; mean of n = 3 independent experiments, read-out: MOLM13 IC50 (CellTiter Glo)): 7.14; anti-proliferative activity in MOLM13 cells (MOLM13 cells; comparison within the compound set): most potent compound overall; pIC50 (IGROV1 cells; 72h, mean of n = 3 independent experiments, read-out: IGROV1 IC50 (CellTiter Glo)): 5.48; anti-proliferative activity in KASUMI-1 cells (KASUMI-1 cells): superior anti-proliferative activity"

# Source: PMC11952222, “Development and comparison of single FLT3-inhibitors to dual FLT3/TAF1-inhibitors as an anti-leukemic approach” (PLOS One, 2025)
